Columns and labels:
[1] = CC50 (cytotoxicity) reported beside the EC50 values; method not described; details: human, MT-2 cells
HIV-1IIIB virus = assay: Determination of a compound's EC50 on MT-2 cell line (HIV-1IIIB infection, XTT/PMS viability read-out); type: cell-based; details: Table 1; for TI: TI = CC50:EC50 ratio
Method: Drug Preparation—The EC50 value for each compound is determined prior to determining the combination index. Each compound is tested in replicates of three, starting at a final concentration of 1 ug/mL. Compounds are dissolved in DMSO at a stock concentration of 10 mg/mL. Test compounds are serially diluted (4-fold dilutions) in a 96-flat-bottom-well plate. The initial working concentration of compound is 4× the desired final concentration. The final volume of drug per well is 45 uL. Included as controls are at least four wells containing cells only and four containing cells and virus in the absence of drug.
Virus Preparation—The HIV-1IIIB virus generated in the H9 cell line is diluted in culture media. The virus is used at a dilution that will cause 50%-75% cell death in day five post-infection as determined by XTT/PMS vital dye. Virus (45 uL) is added to all wells containing drug as well as the control wells.
Cell Preparation—MT-2 cells are added to each well at a volume of 90 uL per well at a cell concentration of 3.3×10^5 cells per mL. MT-2 cells are human T-cell leukemia cells isolated from cord blood lymphocytes and co-cultured with cells from patients with adult T-cell leukemia. […]
Assay—Culture plates are placed in a 37° C., 5% CO2, humidified incubator. […] XTT, (2,3-Bis(2-methoxy-4-nitro-5-sulfophenyl)-2H-tetrazolium-5-carboxanilide) is a yellow tetrazolium salt that, in the presence of dehydrogenase enzymes of metabolically active cells, is reduced to yield a soluble orange formazan dye, which can be measured by absorbance at 490 (or 450) nm in a microplate reader. […] For each plate to be analyzed, 5 mL of XTT/PMS is needed. […] Plates are placed uncovered into a 5% CO2, 37° C. incubator and read on plate reader at a wavelength of 450 nm after four hour incubation.
Data Compilation—The percent inhibition at a given concentration is determined by using the following formula: (average OD-virus control)/(cell control—virus control). The EC50 for each compound is calculated from the linear regression of percent inhibition.

in vitro = details: human

| Structure (SMILES) | CC50 [1] [µM] | TI (HIV-1IIIB virus) | CC50 (in vitro) [µM] | EC50 (HIV-1IIIB virus; Human immunodeficiency virus 1, MT2, 120 h, extended compound vs non-extended analog, MT-2 cells, HIV-1IIIB, day 5 post infection, XTT/PMS) [µM] |
| --- | --- | --- | --- | --- |
| C=C(C)[C@@H]1CC[C@]2(CN3CCOCC3)CC[C@]3(C)[C@H](CC[C@@H]4[C@@]5(C)CC[C@H](OC(=O)CC(C)(C)CC(=O)O)C(C)(C)[C@@H]5CC[C@]43C)[C@@H]12 | 10.4 | 135 | – | – |
| C=C(C)[C@@H]1CC[C@]2(CCN3CCOCC3)CC[C@]3(C)[C@H](CC[C@@H]4[C@@]5(C)CC[C@H](OC(=O)CC(C)(C)CC(=O)O)C(C)(C)[C@@H]5CC[C@]43C)[C@@H]12 | – | 3387 | 74.8 | 0.0221 |

Reference: patent US9505800B2, “Extended triterpene derivatives” (Myrexis, Inc., priority 2006, dated 2016)
